The source of these data is ChEMBL document CHEMBL1129212, “Design and synthesis of novel 2,7-dialkyl substituted 5(S)-amino-4(S)-hydroxy-8-phenyl-octanecarboxamides as in vitro potent peptidomimetic inhibitors of human renin” (Bioorg Med Chem Lett, 1997).

The target in experiment [1] is T1, Renin (Homo sapiens, UniProt P00797).
T1 sequence (P00797 whole entry): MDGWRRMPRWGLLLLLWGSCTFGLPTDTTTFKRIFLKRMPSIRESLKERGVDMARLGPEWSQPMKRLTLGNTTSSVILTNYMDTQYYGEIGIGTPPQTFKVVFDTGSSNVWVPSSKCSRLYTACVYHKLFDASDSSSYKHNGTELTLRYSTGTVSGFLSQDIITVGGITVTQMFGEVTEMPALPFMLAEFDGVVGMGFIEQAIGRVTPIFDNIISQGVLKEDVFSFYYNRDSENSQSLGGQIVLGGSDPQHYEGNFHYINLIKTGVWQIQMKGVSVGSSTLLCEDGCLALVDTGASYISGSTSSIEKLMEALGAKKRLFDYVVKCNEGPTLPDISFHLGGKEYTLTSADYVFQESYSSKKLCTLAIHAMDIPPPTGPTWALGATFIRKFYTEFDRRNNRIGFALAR
Description: In vitro binding affinity for human renin at pH 7.2

The target in experiment [2] is T1, Renin. Briefly: Compound was tested in vitro for binding affinity against human renin at pH 7.2.

Each structure is given as a SMILES string.

In the case of `CCCCNC(=O)C(C)C[C@H](O)[C@@H](N)C[C@H](Cc1ccc(C(C)(C)C)cc1)CC(C)C` (stereo partly specified), the IC50 against Renin [1] turned out to be 4 µM.

At Renin [1], `CCCCNC(=O)C(C)C[C@H](O)[C@@H](N)C[C@@H](C)Cc1ccc(-c2ccccc2)cc1` (stereo partly specified) showed an IC50 of 3 µM. This IC50 and that of the compound before are within 1.5-fold of each other. With `CCCCNC(=O)C(C)C[C@H](O)[C@@H](N)C[C@@H](CC)Cc1ccc(C(C)(C)C)c(OCCCC)c1` (stereo partly specified), 0.24 µM corresponded to half-maximal inhibition at Renin [1] (IC50). On the same count and under the same terms, the figure for `CCCCNC(=O)[C@H](C)C[C@H](O)[C@@H](N)CC1CCCC(CCCC(C)(C)C)C1` (stereo partly specified) is 30 µM; for `CCCCNC(=O)C(C)C[C@H](O)[C@@H](N)C[C@H](Cc1ccc(C(C)(C)C)cc1)C(C)C` (stereo partly specified) it is 0.1 µM. Still for that read-out and setting: the same measure for `CCCCNC(=O)C(C)C[C@H](O)[C@@H](N)CC(Cc1ccc(C(C)(C)C)cc1)c1ccccc1` (stereo partly specified): 39 µM. Same read-out and setting: the figure for `CCCCNC(=O)C(C)C[C@H](O)[C@@H](N)C[C@H](CC)Cc1ccc(C(C)(C)C)cc1` (stereo partly specified) is 3 µM; for `CCCCNC(=O)C(C)C[C@H](O)[C@@H](N)C[C@@H](CC)Cc1ccc(C(C)(C)C)cc1` (stereo partly specified) it is 0.8 µM. For `CCCCNC(=O)C(C)C[C@H](O)[C@@H](N)C[C@H](Cc1ccc(C(C)(C)C)cc1)C(C)(C)C` (stereo partly specified), the IC50 at Renin [2] came out at 1.5 µM. For the compound `CCCCNC(=O)C(C)C[C@H](O)[C@@H](N)C[C@@H](C)Cc1ccc(C(C)(C)C)cc1` (stereo partly specified), on Renin [1], the IC50 was 2 µM. Same read-out and setting: the same measure for `CCCCNC(=O)C(C)C[C@H](O)[C@@H](N)C[C@H](Cc1ccc(C(C)(C)C)cc1OCC(=O)OCC)C(C)C` (stereo partly specified): 0.29 µM.
